Where two headings read alike, the source gives them in different places.

The subject of one series is My5 tumors. Put plainly: My5 myeloma xenograft in nude mice. It counts as in vivo. The following applies: for effect on My5 tumors: 85 mg/kg/dose. On the procedure:
FIG. 14. Kinetin riboside induces tumor growth arrest in My5 and 8226 myeloma tumor xenografts. (A) Matched pairs of nude mice bearing My5 tumors were treated intra-peritoneally (i.p.) with vehicle control (□) or with kinetin riboside (▪) at escalating dose-density from 100 mg/kg once daily to 85mg/kg 5×/daily, administered 5 days per week, commencing after mean tumor volume reached 135mm^3. Mean tumor volumes±SEM are shown from the time of xenografting (n=4/group). (B) Nude mice bearing 8226 tumors were treated with vehicle (□) or with kinetin riboside (▪) (n=4/group), commencing at 85 mg/kg QID (i.p. and s.c.) when the mean tumor volume exceeded 135 mm^3.
Female nude X-linked immune-deficient (BNX) mice purchased from NCI-Frederick were used for in vivo studies. Animals had access to food and water ad libitum and were handled in accordance with animal care and use guidelines. Eight-week-old mice were inoculated with My5 or 8226 (2×10^7) MM cells subcutaneously (s.c.) in the right flank. Kinetin riboside (pre-dissolved in DMSO at 500 mg/mL and stored at −20° C.) was formulated daily by dropwise dissolution to 3.7 mg/mL in pre-warmed (37° C.) 0.9% saline, 1% β2-hydroxypropylcyclodextrin (Sigma) solution and was administered 1×-5× daily at 85 mg/kg/dose. The first dose daily was given intraperitoneally and remaining doses were given s.c. with increasing dosing intervals (30, 60, 120, 180 minutes). Tumor volumes were measured using vernier calipers and calculated with the formula L×W×H×2/3. P-values were calculated by paired t-test (JMP 6.0, SAS; Cary, N.C.).

Series [1] deals with cyclin D1, cyclin D2, cyclin D3. Kind of series: Immunoblot of cyclin D proteins in HMCL. Format: cell-based, human. On the procedure:
Immunoblotting. Cytosolic extracts were prepared from HMCL or purified patient CD138^+ myeloma cells following exposure to kinetin riboside. Cells were washed with cold PBS, resuspended in cold RIPA buffer (5×10^6 cells/100 μL) containing fresh protease and phosphatase inhibitors (Santa Cruz Biotechnology, Santa Cruz, Calif.) and incubated on ice for 30 minutes with gentle mixing. The supernatant was repossessed following high speed centrifugation, and protein concentrations were determined by the Bradford assay. Immunoblot assays were performed as described elsewhere (Krajewski et al., Anal. Biochem., 236:221-228 (1996)). Briefly, equal amounts of protein were separated by SDS-PAGE and transferred to a PVDF nitrocellulose membrane using a semi-dry apparatus. Membranes were blocked using 5% skim milk in Tris buffered saline and probed with monoclonal mouse anti-cyclin D1 (DCS-6, Biosource, Camarillo, Calif.), polyclonal rabbit anti-cyclin D2 (#2924, Cell Signalling Technology), monoclonal mouse anti-cyclin D3 (DCS-22, BioSource), polyclonal rabbit anti-c-Maf (M-153, Santa Cruz), polyclonal rabbit anti-Cleaved Caspase 9 (Asp315) (Cell Signaling Technology), monoclonal mouse anti-β-actin (Cell Signaling Technology) and/or monoclonal anti-a-tubulin (B-7)(Santa Cruz Biotechnology, Santa Cruz, Calif.). Membrane proteins were visualized using HRP-conjugated species-specific secondary antibodies (Cell Signaling Technology) and enhanced chemiluminescence (Pierce, Rockford, Ill.).

In another series the test system is H929 and U266 HMCL. Kind of series: Gene expression profiling (Affymetrix) of H929 and U266. Particulars: 5 μM, 4 hours. Format: cell-based, human. The method, then: Gene expression profiling. H929 and U266 HMCL were treated with kinetin riboside (5 μM), an unrelated cytotoxic pristimerin (0.5 μM), or DMSO vehicle for 4 hours under normal culture conditions. RNA was then isolated using Trizol and further purified by Qiagen column, according to the manufacturer's instructions and was assessed using a BioAnalyzer 2100 (Agilent Technologies, Palo Alto, Calif.). Microarray hybridization using Affymetrix Hg_U133—2+ chips (Affymetrix, Santa Clara, Calif.) was performed as described elsewhere (Abraham et al., Blood 105, 794-803 (2005)). Gene expression intensity values were log transformed, normalized by chip and by cell line to DMSO-control treated samples and analyzed using GeneSpring 7 (Agilent Technologies, Palo Alto, Calif.). Expression values were filtered by raw intensity level to exclude non-expressed probe-sets with raw expression within one log (10) of the minimum level observed. Only probe sets with sub-threshold intensities in all samples (treated and untreated) were excluded.
Analysis of CREM gene variant transcript expression. […]

In series [2] the test system is CD138− hematopoietic cells. Put plainly: Unsorted myeloma patient bone marrow, flow cytometry: CD138- non-malignant cells. It counts as cell-based. The method, then: (§1) Flow cytometry. HMCL were treated as indicated and then washed in cold phosphate-buffered saline (PBS) and resuspended in buffer containing AnnexinV-FITC and propidium iodide (BD Biosciences, San Jose, Calif.) for 15 minutes at room temperature. Cells (10^5) were subsequently diluted and analyzed immediately by flow cytometry (FACScan, BD Biosciences, San Jose, Calif.) using CellQuest software. Patient bone marrow specimens were prepared and analyzed in a similar fashion using AnnexinV-FITC and anti-CD138-PE (BD Biosciences, San Jose, Calif.).
As mouse embryos that lack any D-cyclins eventually die from hematopoietic failure (Kozar et al., Cell, 118, 477-91 (2004)), the bone marrow might be predicted to be one of the most sensitive non-malignant tissue to be affected by drugs targeting cyclin D expression. Unsorted bone marrow samples from myeloma patients were treated with kinetin riboside to assess the relative cytotoxicity of this drug on malignant versus non-malignant marrow cells. Bone marrow samples were first processed to remove non-nucleated red cells and were then treated for 48 hours with kinetin riboside (5 μM).
Background: Flow cytometry measures light scatter and fluorescence of single cells or particles in a stream.

A further series relates to HMCL. Put plainly: Annexin V / propidium iodide flow cytometry of HMCL. Format: cell-based, human. The method, then: as §1
The conditions of series [3]: mouse, in vivo. From the text: Kinetin riboside toxicity in mice. In vivo toxicity studies of synthetic kinetin riboside were initiated in balc/c mice. […] The actual volume of distribution and the half-life of kinetin riboside in vivo are at present unknown and future schedules of administration may require adjustment to account for these.

Regarding `OC[C@H]1O[C@@H](n2cnc3c(NCc4ccco4)ncnc32)[C@H](O)[C@@H]1O` [kinetin riboside, N6-Furfuryladenosine], the “effect on My5 tumors” value in the series with My5 tumors (4× daily dosing) is reported as “tumor stasis”. In addition, the “effect on My5 tumors” value in the series on My5 tumors (5x daily dosing) is recorded as “regression of tumors”. The “effect on My5 tumor growth” value in the series on My5 tumors (once daily, up to 100 mg/kg/day) is listed as “no effect”. Also, in series [1], the “lag between exposure and cyclin D1 or D2 suppression” value fell in the range of 4 to 6 h. Further, in series [1] (H929, 10 μM), the “time to suppression of cyclin D1 and D2 proteins” value is ≤ 6 h; the “time until cyclin D3 levels significantly affected” value was ≥ 28 h. Also, the “cyclin D3 protein levels” value in series [1] (HMCL, 10 μM, 16 hours) is “did not influence cyclin D3 levels”. The “cyclin D1 and D2 protein levels in Kms11” value in series [1] (Kms11) is reported as “significant suppression only of cyclin D2 but not D1”. Further, in series [1] (U266, 10 μM, 16 hours), the “cyclin D1 protein level in U266” value is recorded as “suppression of cyclin D1”. The “cyclin D1 and/or D2 protein levels” value in series [1] (all HMCL tested, 10 μM, 16 hours) was “significant suppression”. In addition, in the series on H929 and U266 HMCL, the CREM isoform expression entry is recorded as “preferential induction of CREM isoforms”; the “number of genes with 3-fold or greater change in expression in both H929 and U266” value is on record as “approximately 35 genes”. For the same compound, the “toxicity in CD138− bone marrow progenitor compartment” value in series [2] is on record as “only modest toxicity”. Moreover, in series [2] (human, 48 h, 5 μM), the “effect on non-malignant CD138− marrow cells” value was “leaving the majority of non-malignant CD138− marrow cells intact”. In the series with HMCL, the “time to Annexin-V surface binding and loss of CD138 expression” value was 24 to 96 h. Further, in the series with HMCL (H929, 10 μM), the “response of H929 cells” value is listed as “apoptosis”. Moreover, the “response of U266 cells” value in the series on HMCL (U266, 10 μM, 96 hours) is given as “growth inhibition”. Besides, the “final concentration equated from a dose of 25 mg/kg” value in series [3] (BALB/c (printed as "balc/c"), 25 mg/kg) is reported as “about 60 μM”. Also, the “duration of hypoactivity after treatment” value in series [3] (BALB/c) lay in the range of 15 to 30 min. Besides, in series [3] (BALB/c, ip), the “maximum tolerated single dose (MTDs)” value is ~100 mg/kg. Moreover, the “maximum tolerated single dose (MTDs)” value in series [3] (BALB/c, iv) is reported as “about 25 mg/kg”. Besides, the “tolerability of multi-dose regimen” value in series [3] is “well tolerated”.

For the origin of these results see patent US8822440B2, “Inhibiting cyclin D polypeptides” (Mayo Foundation for Medical Education and Research, priority 2006, dated 2014).
